# pIC50: −log10 of the molar value. Where two headings read alike, the source gives them in different places. Peptide text beside a SMILES is read from it. * marks the point of attachment. Boc = CC(C)(C)OC(=O)*; OBn = c1ccc(CO*)cc1
# Tests used:
# NKA receptor [1] = target: T1, NKA receptor (Mesocricetus auratus, UniProt P51144); test: Activity to constriction of hamster respiratory tracts caused by NKA (isolated tissue, tension); assay type: cell-based
# T1 construct: from tissue; host or cells: hamster respiratory tract (trachea) ring specimens
# T1 sequence (P51144 1-384): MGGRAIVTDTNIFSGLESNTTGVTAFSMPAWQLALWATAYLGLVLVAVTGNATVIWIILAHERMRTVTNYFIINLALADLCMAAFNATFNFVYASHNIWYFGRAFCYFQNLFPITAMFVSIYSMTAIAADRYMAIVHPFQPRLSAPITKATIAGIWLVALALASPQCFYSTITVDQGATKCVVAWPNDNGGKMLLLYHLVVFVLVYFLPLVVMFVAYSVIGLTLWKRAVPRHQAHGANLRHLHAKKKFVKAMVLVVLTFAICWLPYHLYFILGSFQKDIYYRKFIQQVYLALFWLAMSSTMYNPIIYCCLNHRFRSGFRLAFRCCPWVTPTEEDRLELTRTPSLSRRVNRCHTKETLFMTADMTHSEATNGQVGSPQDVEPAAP
# Method: The activity of the azapeptide derivative of the present invention to a NKA receptor was evaluated by the following method.
# (1) Activity to constriction of hamster respiratory tracts caused by NKA
# Respiratory tracts were taken out from male Syrian strain Golden hamsters having a body weight of 100 to 180 g, and cyclic specimens having a width of 3 to 6 mm were prepared. The specimens were incubated at 37° C. and suspended by loading a static tension of 0.5 g, in a reaction tank charged with 15 ml of a Tyrode solution (137 mM of NaCl, 2.7 mM of KCl, 1.8 mM of CaCl2, 1.02 mM of MgCl2, 11.9 mM of NaHCO3, 0.42 mM of NaH2 PO4 and 5.5 mM of glucose) in which 95% O2 -5% CO2 had been passed.
# The compound to be tested was charged into the reaction tank and maintained for 5 minutes. 1×10^-7 M of NKA was charged into the reaction tank, and tension caused thereby was recorded. The examined effect of the tested compound as an antagonist was shown by IC50.
# NKA receptor [2] = target: T2, NKA receptor (Cavia porcellus, UniProt Q64077); test: Activity to constriction of guinea pig respiratory tracts caused by NKA (in vivo, excess air amount); settings: anesthetized guinea pigs, cervical vein; for Controlling rate (%) 1 min: 2 nmol/kg NKA given 1 min after test compound; for Controlling rate (%) 15 min: 2 nmol/kg NKA given 15 min after test compound
# T2 construct: Male Hartley strain guinea pigs having a body weight of 350 to 500 g were anesthetized; from tissue; host or cells: whole anaesthetized guinea pig (airways, in vivo)
# T2 sequence (Q64077 1-402): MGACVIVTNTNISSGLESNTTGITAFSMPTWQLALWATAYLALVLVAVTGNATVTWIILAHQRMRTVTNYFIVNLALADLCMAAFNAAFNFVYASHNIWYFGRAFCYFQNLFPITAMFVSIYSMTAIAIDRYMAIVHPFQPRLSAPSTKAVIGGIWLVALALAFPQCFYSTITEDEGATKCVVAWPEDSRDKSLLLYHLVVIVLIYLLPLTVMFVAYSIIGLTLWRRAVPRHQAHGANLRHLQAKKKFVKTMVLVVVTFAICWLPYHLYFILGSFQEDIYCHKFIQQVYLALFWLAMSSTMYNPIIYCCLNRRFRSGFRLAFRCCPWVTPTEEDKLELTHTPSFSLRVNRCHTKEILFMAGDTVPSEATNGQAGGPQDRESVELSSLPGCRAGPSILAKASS
# Method: (2) Activity to constriction of guinea pig respiratory tracts caused by NKA
# Male Hartley strain guinea pigs having a body weight of 350 to 500 g were anesthetized by administering 1.5 g/kg of urethane into abdominal cavities thereof. Cannulas made of polyethylene were inserted into cervical veins and respiratory tracts. From the cervical vein cannulas, 1 mg of gallamine was administered to stop respiration. The respiratory tract cannulas were connected to a respirator, and artificial respiration was carried out with an air-supplying amount at one time of 4 to 6 ml and an air-supplying frequency of 70 times/min. Side branches of the respiratory tract cannulas were introduced into a water tank, and a hydraulic pressure of 8 cm H2 O was loaded. Excess air amounts exceeding the above hydraulic pressure and discharged were measured. From the cervical vein cannulas, 2 nmol/kg of NKA was administered, each compound to be tested was administered after 15 minutes, and further 2 nmol/kg of NKA was administered after 1, 15, 30, 45 and 60 minutes, respectively. The increased amounts of excess air after the respective NKA administrations were measured, and percentages relative to the increased amounts of excess air when the respiratory tracts were completely closed were determined, which were defined as respiratory constriction rates. The decreased ratios of the respiratory constriction rates after administering the compounds to be tested to the respiratory constriction rates before administering the compounds to be tested were shown by percentages, which were defined as controlling rates. The controlling rates were regarded as an effect of the compound to be tested as an antagonist.
# [3] = mole concentration giving 50% control of tension caused by 1×10^-7 M NKA, compound maintained 5 minutes, hamster respiratory tract specimens, read-out: IC50
Molecule,pIC50 (NKA receptor [1]),other results
"NC(=O)C[C@H](NC(=O)OCc1ccccc1)C(=O)N[C@@H](Cc1c[nH]c2ccccc12)C(=O)NN(Cc1ccccc1)C(=O)NCCOCc1ccccc1 [Example 12, Z-Asn-Trp-AzPhe-NH(CH2)2 OCH2 Ph]",8.35,Controlling rate (%) 1 min (NKA receptor [2]): 19.5%; Controlling rate (%) 15 min (NKA receptor [2]): 73.2%; Controlling rate (%) 30 min (NKA receptor [2]; 2 nmol/kg NKA given 30 min after test compound): 62.2%; Controlling rate (%) 45 min (NKA receptor [2]; 2 nmol/kg NKA given 45 min after test compound): 54.8%; Controlling rate (%) 60 min (NKA receptor [2]; 2 nmol/kg NKA given 60 min after test compound): 51.7%
"CC(C)(C)OC(=O)N[C@@H](CCC(N)=O)C(=O)N[C@@H](Cc1c[nH]c2ccccc12)C(=O)NN(Cc1ccc(F)cc1)C(=O)NCCOCc1ccccc1 [Example 30 (2), Boc-Gln-Trp-AzPhe(4-F)-NH(CH2)2 OCH2 Ph]",8.96,
"CC(C)(C)NC(=O)N[C@@H](CCC(N)=O)C(=O)N[C@@H](Cc1c[nH]c2ccccc12)C(=O)NN(Cc1ccc(F)cc1)C(=O)NCCOCc1ccccc1 [Example 31, t-Bu-NHCO-Gln-Trp-AzPhe(4-F)-NH(CH2)2 OCH2 Ph]",9.38,
"COc1ccc(CNC(=O)N(Cc2ccc(OCc3ccccc3)cc2)NC(=O)[C@H](Cc2c[nH]c3ccccc23)NC(=O)[C@H](CCC(N)=O)NC(=O)OC(C)(C)C)c(OC)c1 [Example 32 (2), Boc-Gln-Trp-AzTyr(CH2 Ph)-NHDmob]",5.11,
"Cc1ccccc1CN(NC(=O)[C@H](Cc1c[nH]c2ccccc12)NC(=O)[C@H](CCC(N)=O)NC(=O)NC(C)(C)C)C(=O)NCCOCc1ccccc1 [Example 33 (3), t-Bu-NHCO-Gln-Trp-AzPhe(2-Me)-NH(CH2)2 OCH2 Ph]",9.80,
"Cc1cccc(CN(NC(=O)[C@H](Cc2c[nH]c3ccccc23)NC(=O)[C@H](CCC(N)=O)NC(=O)NC(C)(C)C)C(=O)NCCOCc2ccccc2)c1 [Example 34 (3), t-Bu-NHCO-Gln-Trp-AzPhe(3-Me)-NH(CH2)2 OCH2 Ph]",8.41,
"Cc1ccc(CN(NC(=O)[C@H](Cc2c[nH]c3ccccc23)NC(=O)[C@H](CCC(N)=O)NC(=O)NC(C)(C)C)C(=O)NCCOCc2ccccc2)cc1 [Example 35 (3), t-Bu-NHCO-Gln-Trp-AzPhe(4-Me)-NH(CH2)2 OCH2 Ph]",9.09,
"CC(C)c1ccc(CN(NC(=O)[C@H](Cc2c[nH]c3ccccc23)NC(=O)[C@H](CCC(N)=O)NC(=O)NC(C)(C)C)C(=O)NCCOCc2ccccc2)cc1 [Example 36 (3), t-Bu-NHCO-Gln-Trp-AzPhe(4-iPr)-NH(CH2)2 OCH2 Ph]",7.16,
"Cc1ccc(CN(NC(=O)[C@H](Cc2c[nH]c3ccccc23)NC(=O)[C@H](CCC(N)=O)NC(=O)NC(C)(C)C)C(=O)NCCOCc2ccccc2)c(C)c1 [Example 37 (3), t-Bu-NHCO-Gln-Trp-AzPhe(2,4-diMe)-NH(CH2)2 OCH2 Ph]",9.57,
"Cc1ccc(C)c(CN(NC(=O)[C@H](Cc2c[nH]c3ccccc23)NC(=O)[C@H](CCC(N)=O)NC(=O)NC(C)(C)C)C(=O)NCCOCc2ccccc2)c1 [Example 38 (3), t-Bu-NHCO-Gln-Trp-AzPhe(2,5-diMe)-NH(CH2)2 OCH2 Ph]",9.17,
"CC(C)(C)NC(=O)N[C@@H](CCC(N)=O)C(=O)N[C@@H](Cc1c[nH]c2ccccc12)C(=O)NN(Cc1ccccc1F)C(=O)NCCOCc1ccccc1 [Example 39 (3), t-Bu-NHCO-Gln-Trp-AzPhe(2-F)-NH(CH2)2 OCH2 Ph]",9.21,
"CC(C)(C)NC(=O)N[C@@H](CCC(N)=O)C(=O)N[C@@H](Cc1c[nH]c2ccccc12)C(=O)NN(Cc1ccccc1C(F)(F)F)C(=O)NCCOCc1ccccc1 [Example 40 (3), t-Bu-NHCO-Gln-Trp-AzPhe(2-CF3)-NH(CH2)2 OCH2 Ph]",9.51,
"CC(C)(C)NC(=O)N[C@@H](CCC(N)=O)C(=O)N[C@@H](Cc1c[nH]c2ccccc12)C(=O)NN(Cc1ccccc1)C(=O)NCCOCc1ccc2ccccc2c1 [Example 41 (3), t-Bu-NHCO-Gln-Trp-AzPhe-NH(CH2)2 O-(2-naphthylmethyl)]",7.70,
"CC(C)(C)NC(=O)N[C@@H](CCC(N)=O)C(=O)N[C@@H](Cc1c[nH]c2ccccc12)C(=O)NN(Cc1ccccc1)C(=O)NCCOCc1cccnc1 [Example 42 (3), t-Bu-NHCO-Gln-Trp-AzPhe-NH(CH2)2 O-(3-pyridylmethyl)]",7.80,
"CC(C)(C)NC(=O)N[C@@H](CCC(N)=O)C(=O)N[C@@H](Cc1c[nH]c2ccccc12)C(=O)NN(Cc1ccccc1)C(=O)NCCOC(c1ccccc1)c1ccccc1 [Example 44 (2), t-Bu-NHCO-Gln-Trp-AzPhe-NH(CH2)2 O-benzhydryl]",6.64,
"CC(C)(C)OC(=O)N[C@@H](CC(=O)OCc1ccccc1)C(=O)N[C@@H](CCC(N)=O)C(=O)N[C@@H](Cc1c[nH]c2ccccc12)C(=O)N[C@@H](Cc1ccccc1)C(N)=O [Reference example 14, Boc-Asp(OBzl)-Gln-Trp-Phe-NH2, reference compound] (Boc-D(OBn)QWF-NH2)",,pIC50 (NKA receptor [1]; [3]): 6.48
"Ac-LDQWFG-NH2 [Reference example 13, Ac-Leu-Asp-Gln-Trp-Phe-Gly-NH2, reference compound]",,pIC50 (NKA receptor [1]; [3]): 7.66; Controlling rate (%) 1 min (NKA receptor [2]): 11.9%; Controlling rate (%) 15 min (NKA receptor [2]): 3.9%

# Source: patent US5837687A, “Azapeptide derivative” (Fujirebio Inc., priority 1994, dated 1998)
